The target in assay [1] is T1, Serine/threonine-protein kinase Nek9 (Homo sapiens) (UniProt Q8TD19).
T1 sequence (whole entry): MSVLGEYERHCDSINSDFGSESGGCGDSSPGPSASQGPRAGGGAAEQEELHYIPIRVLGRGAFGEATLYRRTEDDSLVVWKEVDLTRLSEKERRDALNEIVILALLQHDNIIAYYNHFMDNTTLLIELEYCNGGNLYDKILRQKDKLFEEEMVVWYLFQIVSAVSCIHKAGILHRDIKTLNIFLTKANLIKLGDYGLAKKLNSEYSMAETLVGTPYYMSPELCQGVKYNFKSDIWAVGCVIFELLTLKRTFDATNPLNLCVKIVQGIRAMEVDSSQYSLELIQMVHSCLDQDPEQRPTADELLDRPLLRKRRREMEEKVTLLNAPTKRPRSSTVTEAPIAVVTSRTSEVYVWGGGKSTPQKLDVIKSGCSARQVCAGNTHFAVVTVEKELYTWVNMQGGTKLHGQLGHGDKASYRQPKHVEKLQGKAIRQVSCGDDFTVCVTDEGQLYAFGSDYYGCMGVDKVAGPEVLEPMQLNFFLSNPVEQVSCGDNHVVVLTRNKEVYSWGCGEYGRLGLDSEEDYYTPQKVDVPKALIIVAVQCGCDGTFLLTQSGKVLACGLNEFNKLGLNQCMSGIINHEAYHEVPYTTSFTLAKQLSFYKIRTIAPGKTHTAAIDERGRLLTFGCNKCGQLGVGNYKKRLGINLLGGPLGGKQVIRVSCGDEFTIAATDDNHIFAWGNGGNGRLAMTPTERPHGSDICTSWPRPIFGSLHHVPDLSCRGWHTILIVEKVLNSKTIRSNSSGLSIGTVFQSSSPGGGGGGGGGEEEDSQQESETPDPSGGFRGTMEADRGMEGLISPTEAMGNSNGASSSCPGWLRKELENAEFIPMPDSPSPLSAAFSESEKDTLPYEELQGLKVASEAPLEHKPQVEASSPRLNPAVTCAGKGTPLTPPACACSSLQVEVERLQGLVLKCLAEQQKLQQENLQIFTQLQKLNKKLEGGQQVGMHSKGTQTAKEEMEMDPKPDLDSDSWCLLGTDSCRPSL
The assay can be described thus: Inhibition of NEK9 (unknown origin) assessed as residual activity at 1000 nM by KINOMEscan analysis relative to control.

In assay [2] the target is T2, Serine/threonine-protein kinase TNNI3K (Homo sapiens) (UniProt Q59H18).
T2 sequence (whole entry): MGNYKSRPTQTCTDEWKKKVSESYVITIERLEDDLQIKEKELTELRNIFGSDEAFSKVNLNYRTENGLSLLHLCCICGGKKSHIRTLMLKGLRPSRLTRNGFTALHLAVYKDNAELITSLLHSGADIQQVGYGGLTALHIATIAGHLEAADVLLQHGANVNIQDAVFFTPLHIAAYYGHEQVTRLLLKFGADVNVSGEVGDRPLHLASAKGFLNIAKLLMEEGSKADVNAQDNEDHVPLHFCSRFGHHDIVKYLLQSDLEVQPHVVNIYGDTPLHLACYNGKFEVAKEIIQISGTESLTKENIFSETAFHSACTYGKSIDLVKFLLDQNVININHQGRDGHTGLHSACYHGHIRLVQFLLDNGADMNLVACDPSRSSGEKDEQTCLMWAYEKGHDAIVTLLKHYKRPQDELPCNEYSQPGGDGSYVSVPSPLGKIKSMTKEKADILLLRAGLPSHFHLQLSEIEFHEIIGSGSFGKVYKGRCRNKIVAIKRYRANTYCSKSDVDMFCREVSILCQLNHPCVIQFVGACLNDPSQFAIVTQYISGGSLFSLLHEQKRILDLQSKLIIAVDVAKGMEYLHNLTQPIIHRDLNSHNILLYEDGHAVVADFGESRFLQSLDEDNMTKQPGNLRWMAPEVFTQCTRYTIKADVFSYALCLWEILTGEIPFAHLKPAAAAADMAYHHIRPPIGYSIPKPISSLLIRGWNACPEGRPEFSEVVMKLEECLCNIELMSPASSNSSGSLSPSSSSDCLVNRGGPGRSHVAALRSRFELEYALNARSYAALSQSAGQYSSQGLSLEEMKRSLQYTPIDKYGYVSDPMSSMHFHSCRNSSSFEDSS
The assay can be described thus: Inhibition of TNNI3K (unknown origin) assessed as residual activity at 1000 nM by KINOMEscan analysis relative to control.

Assay [3] deals with T3, cGMP-dependent protein kinase 1 (Homo sapiens) (UniProt Q13976).
T3 sequence (whole entry): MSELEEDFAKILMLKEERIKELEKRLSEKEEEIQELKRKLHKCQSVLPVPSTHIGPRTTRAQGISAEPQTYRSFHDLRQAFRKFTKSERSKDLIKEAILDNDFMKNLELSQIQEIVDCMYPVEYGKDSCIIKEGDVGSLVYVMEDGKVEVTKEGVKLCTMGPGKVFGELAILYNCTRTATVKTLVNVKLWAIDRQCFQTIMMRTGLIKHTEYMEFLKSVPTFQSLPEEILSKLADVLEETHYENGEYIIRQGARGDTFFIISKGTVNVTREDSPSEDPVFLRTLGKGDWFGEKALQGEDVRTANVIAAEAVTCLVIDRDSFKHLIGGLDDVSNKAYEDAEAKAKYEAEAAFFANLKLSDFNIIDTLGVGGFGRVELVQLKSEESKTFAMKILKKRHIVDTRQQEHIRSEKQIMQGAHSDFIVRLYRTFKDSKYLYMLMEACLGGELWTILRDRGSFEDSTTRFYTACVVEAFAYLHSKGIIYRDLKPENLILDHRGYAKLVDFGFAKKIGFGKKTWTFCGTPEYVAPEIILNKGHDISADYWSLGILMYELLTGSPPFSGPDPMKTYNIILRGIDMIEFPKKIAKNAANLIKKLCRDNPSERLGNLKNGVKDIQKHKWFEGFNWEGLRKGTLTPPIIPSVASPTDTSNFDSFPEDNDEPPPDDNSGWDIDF
The assay can be described thus: Inhibition of PRKG1 (unknown origin) assessed as residual activity at 1000 nM by KINOMEscan analysis relative to control.

For assay [4], the target named is Mitogen-activated protein kinase kinase kinase kinase 1 (Homo sapiens) (UniProt Q92918). The assay can be described thus: Inhibition of HPK1 (unknown origin) assessed as residual activity at 1000 nM by KINOMEscan analysis relative to control.
Sequence of Mitogen-activated protein kinase kinase kinase kinase 1 (Homo sapiens) (Q92918 whole entry, looked up): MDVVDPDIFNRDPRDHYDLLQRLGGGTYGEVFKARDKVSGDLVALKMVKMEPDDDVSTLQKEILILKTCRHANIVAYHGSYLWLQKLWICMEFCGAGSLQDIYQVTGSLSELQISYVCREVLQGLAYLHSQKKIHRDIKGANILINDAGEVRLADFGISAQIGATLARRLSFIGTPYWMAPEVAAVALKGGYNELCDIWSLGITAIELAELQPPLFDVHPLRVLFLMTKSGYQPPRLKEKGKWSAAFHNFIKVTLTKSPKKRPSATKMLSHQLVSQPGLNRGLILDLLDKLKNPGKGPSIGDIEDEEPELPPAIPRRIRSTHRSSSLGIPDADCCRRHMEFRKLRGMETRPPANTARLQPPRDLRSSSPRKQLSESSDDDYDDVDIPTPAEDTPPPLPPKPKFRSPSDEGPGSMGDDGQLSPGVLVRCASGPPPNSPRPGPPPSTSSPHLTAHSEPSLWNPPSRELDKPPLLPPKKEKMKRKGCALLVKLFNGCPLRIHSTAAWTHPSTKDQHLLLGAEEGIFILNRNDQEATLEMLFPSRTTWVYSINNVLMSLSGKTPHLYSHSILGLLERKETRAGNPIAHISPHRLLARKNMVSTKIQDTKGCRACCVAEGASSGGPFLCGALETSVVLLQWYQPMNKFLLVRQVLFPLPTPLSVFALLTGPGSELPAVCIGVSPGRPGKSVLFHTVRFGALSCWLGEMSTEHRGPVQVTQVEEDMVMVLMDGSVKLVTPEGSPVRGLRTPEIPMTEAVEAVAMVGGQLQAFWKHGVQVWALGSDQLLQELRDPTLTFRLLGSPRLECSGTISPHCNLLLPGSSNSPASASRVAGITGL
Assay [5] concerns the target Serine/threonine-protein kinase PRP4 homolog (Homo sapiens) (UniProt Q13523). The assay can be described thus: Inhibition of PRP4 (unknown origin) assessed as residual activity at 1000 nM by KINOMEscan analysis relative to control.
For assay [6], the system named is Receptor-type tyrosine-protein kinase FLT3 (Homo sapiens), P36888 [K663Q]. The assay can be described thus: Inhibition of FLT3 K663Q mutant (unknown origin) assessed as residual activity at 1000 nM by KINOMEscan analysis relative to control.
The target of assay [7] is Tyrosine-protein kinase Yes (Homo sapiens) (UniProt P07947). The assay can be described thus: Inhibition of YES (unknown origin) assessed as residual activity at 1000 nM by KINOMEscan analysis relative to control.
Sequence of Tyrosine-protein kinase Yes (Homo sapiens) (P07947 2-543 limits assumed): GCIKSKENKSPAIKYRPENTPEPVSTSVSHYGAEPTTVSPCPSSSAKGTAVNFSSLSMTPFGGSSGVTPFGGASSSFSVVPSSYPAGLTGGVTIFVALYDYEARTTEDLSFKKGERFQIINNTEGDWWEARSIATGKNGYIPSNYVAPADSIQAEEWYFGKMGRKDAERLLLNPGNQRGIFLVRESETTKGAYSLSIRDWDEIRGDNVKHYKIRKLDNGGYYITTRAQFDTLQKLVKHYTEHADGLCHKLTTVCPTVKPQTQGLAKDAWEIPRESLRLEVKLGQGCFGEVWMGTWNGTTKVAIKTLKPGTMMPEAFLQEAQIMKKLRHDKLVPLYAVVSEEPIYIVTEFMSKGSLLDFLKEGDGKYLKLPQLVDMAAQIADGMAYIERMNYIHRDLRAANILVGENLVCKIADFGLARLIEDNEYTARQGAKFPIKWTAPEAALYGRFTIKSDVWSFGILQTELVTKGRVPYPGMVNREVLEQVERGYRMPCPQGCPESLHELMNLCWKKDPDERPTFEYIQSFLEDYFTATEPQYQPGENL

Sequence of Serine/threonine-protein kinase PRP4 homolog (Homo sapiens) (Q13523 whole entry): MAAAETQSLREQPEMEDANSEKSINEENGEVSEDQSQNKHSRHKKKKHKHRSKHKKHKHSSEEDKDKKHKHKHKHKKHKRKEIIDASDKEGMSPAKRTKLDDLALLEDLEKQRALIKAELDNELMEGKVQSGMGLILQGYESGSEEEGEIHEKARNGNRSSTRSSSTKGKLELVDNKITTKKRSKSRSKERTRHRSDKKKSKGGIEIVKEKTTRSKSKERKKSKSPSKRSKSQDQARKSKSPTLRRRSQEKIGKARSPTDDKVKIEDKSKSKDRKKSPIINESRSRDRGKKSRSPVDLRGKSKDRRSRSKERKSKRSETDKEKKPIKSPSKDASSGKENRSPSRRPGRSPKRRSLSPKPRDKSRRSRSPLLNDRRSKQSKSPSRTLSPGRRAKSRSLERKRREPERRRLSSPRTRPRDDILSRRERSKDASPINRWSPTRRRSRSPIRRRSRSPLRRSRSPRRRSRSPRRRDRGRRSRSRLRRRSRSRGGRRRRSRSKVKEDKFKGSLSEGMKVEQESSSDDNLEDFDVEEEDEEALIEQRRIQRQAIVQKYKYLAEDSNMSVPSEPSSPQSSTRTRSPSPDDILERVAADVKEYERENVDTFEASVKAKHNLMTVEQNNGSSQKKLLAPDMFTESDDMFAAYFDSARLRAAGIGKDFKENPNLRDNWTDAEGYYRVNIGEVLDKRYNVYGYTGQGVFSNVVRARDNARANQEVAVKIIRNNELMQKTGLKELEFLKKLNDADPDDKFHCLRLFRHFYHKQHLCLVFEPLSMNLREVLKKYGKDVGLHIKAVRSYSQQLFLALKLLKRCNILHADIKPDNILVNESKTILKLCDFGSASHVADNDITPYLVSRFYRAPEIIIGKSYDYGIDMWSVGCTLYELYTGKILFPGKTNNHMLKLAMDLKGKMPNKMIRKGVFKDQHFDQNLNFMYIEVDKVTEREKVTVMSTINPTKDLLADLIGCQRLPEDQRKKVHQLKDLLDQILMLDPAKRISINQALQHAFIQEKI

For `COc1cc2nc(C)nc(N[C@H](C)c3cccc(-c4cn[nH]c4)c3)c2cc1OC`, the Activity in assay [1] amounted to 97%; in assay [2] it was 96%; in assay [3] it was 70%; in assay [4], 97%; in assay [5] it was 94%; in assay [6], 90%. In addition, the Activity in assay [7] came out at 67%.

With `COc1cc2ncnc(N[C@H](C)c3cccc4ccccc34)c2cc1OC`, the Activity was found to be 100% in assay [1]; 100% in assay [2]; 100% in assay [3]; 100% in assay [4]; 95% in assay [5]; 96% in assay [6]. The Activity in assay [7] stood at 100%.

These data come from ChEMBL document CHEMBL5678818, “Discovery of potent SOS1 inhibitors that block RAS activation via disruption of the RAS-SOS1 interaction” (Proc Natl Acad Sci U S A, 2019).
